Assay results taken from patent publication US20250353835A1, “N-TETRAZOLYL ARYL UREA-BASED DERIVATIVES, PREPARATION METHOD THEREFOR, AND USE THEREOF” (Hangzhou Yirui Pharmaceutical Technology Co., Ltd, priority 2022, published 2025).
pIC50: −log10 of the molar value.

Key:
[1] = Drug concentration in rat retinas after intraocular injection (HPLC); format: in vivo, Wistar rats; settings: male, Wistar, rat, retina, other: intraocular injection, 5 μL of 0.5% solution per eye; Day 7 after intraocular injection of 0.5% (5 μL per eye); read-out: retinal drug concentration
Excerpt: 1.1 Experimental aminals: SPF-grade male Wistar rats weighed 180-220 g.
1.2 Drugs and reagents: Compound 71; sodium chloride injection (Shandong Qidu Pharmaceutical Co., Ltd., Batch No.: 3B151014124); acetonitrile (chromatographically pure, TEDIA, USA); methanol (chromatographically pure, SIGMA-ALDRICH product); triethylamine (analytically pure, Hangzhou Gaojing Fine Chemical Co., Ltd.).
1.3 Experimental grouping and administration: according to the sampling time, 33 male Wistar rats were divided into 11 groups (three rats per group) of: (1) control group; (2) 0 h; (3) 2 h; (4) 6 h; (5) 24 h; (6) 48 h; (7) 72 h; (8) 5 d; (9) 7 d; (10) 10 d; (11) 14 d. Three rats in the control group were injected with solvent (sterile normal saline) intraocularly, and the remaining 30 rats were injected with Compound 71 intraocularly at a concentration of 0.5% by using a 5 μL microinjector, and 5 μL of drug was injected per bulbus oculi.
1.4 Sampling and detection index: The retina of the rat in the control group was taken on Day 14 (14 d), and the retina of the remaining 30 rats was taken at the corresponding time points. The retina were frozen in liquid nitrogen, and then subjected to the subsequent HPLC detection.
1.5.1 Chromatographic conditions: The mobile phase was chromatographic grade acetonitrile-water=25-75 (v/v). The flow rate was 0.5 mL/min. The column temperature was 25° C. The UV detection wavelength was 254 nm. The injection volume was 20 μL.
1.5.2 Sample processing and preparation: the sample of the rat retina was taken out from the ultra-low temperature (−80° C.) refrigerator, accurately weighed and placed in a glass homogenizer, and ethyl acetate as an organic solvent pre-cooled in a 4° C. refrigerator was added at a ratio of 100 mL/g. The homogenizer was placed in an ice bath for homogenization. After homogenization, all the homogenate was poured into a 5 mL stoppered centrifuge tube. The centrifugation was performed at a low temperature of 4° C. for 5 min (5000 r/min). All the organic phase as the upper layer was accurately taken out and placed in a glass tube with conical bottom. The remaining residue of retina was extracted with 2 mL ethyl acetate repeatedly once. After centrifugation, the two organic phases were combined. Then, the centrifuge tube with conical bottom was blowed for dryness in a nitrogen flow in a 45° C. water bath. The residue was redissolved with 0.1 mL of chromatographic methanol, vortex mixed for 1 min, and centrifuged for 5 min at a high speed of 18000 r/min. 20 μL of the supernatant was taken, and analyzed in a high-performance liquid chromatography system.
1.5.3 Sample determination: After intraocular injection of 5 μL of 0.5% Compound 71, the retina was taken at different time points to analyze the drug content of the test compound in the retina.
1.5.4 Experimental results and conclusions: According to the retinal drug concentration-time curve, it is in conformity to the non-absorption two-compartment model. According to the pharmacokinetic non-absorption two-compartment model theory, the pharmacokinetic parameters of the drug were calculated.

human B1R = target: T1, human B1R (Homo sapiens, UniProt P46663); experiment: FLIPR calcium ion flux assay, inhibitory activity against human B1R; format: cell-based; settings: HEK293 cells stably expressing human B1R; agonist [Lys-des-Arg9]-Bradykinin 4.6 nM (EC80); FLIPR method
T1 construct: host or cells: HEK293
T1 sequence (P46663 1-353): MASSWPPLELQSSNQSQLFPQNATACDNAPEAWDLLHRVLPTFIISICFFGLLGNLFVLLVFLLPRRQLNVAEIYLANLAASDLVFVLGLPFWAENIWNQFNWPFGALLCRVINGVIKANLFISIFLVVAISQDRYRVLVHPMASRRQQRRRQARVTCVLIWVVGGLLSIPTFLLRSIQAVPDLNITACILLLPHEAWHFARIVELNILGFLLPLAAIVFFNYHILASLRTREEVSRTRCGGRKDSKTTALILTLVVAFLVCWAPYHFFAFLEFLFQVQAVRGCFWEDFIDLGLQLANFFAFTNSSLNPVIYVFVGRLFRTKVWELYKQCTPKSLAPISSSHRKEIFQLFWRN
Outline: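 HEK293 cells stably expressing human B1R, loaded with Fluo-4 Direct plus probenecid; compounds 9-point 1:5 series from 30 μM, duplicate, preincubated 10 min. Stimulation with [Lys-des-Arg9]-bradykinin at 4.6 nM final (EC80); peak fluorescence at 538 nm gave IC50.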

[2] = system: rat model of diabetic retinopathy; experiment: Rat model of diabetic retinopathy (STZ); format: in vivo, Wistar rats; settings: Concanavalin A/FITC; 14 days after intravitreal injection; compounds 0.25%, dexamethasone 0.1%
Method: 3.1 Laboratory animals: SPF-grade male Wistar rats, weighed 180-220 g.
3.3 Animal modeling and grouping: After one week of adaptive feeding, 134 male Wistar rats (weighed 220-260 g) were administered 65 mg/kg of STZ by one-time intraperitoneal injection to prepare a rat model of type I diabetic. The rats were fasting but water was allowable overnight for 15 h. The formulated STZ solution was intraperitoneally injected according to body weight. After 1 h, the diet was resumed and blood glucose was measured at 72 h. The successfully modeled diabetic rats (120 rats) were selected for continued feeding, and randomly divided into the following 6 groups according to blood glucose (20 rats per group), plus a group of normal rats with no STZ injected as a negative control group.
3.4 Administration: The rats continued to be fed until blood glucose was measured once before administration. After blood glucose reached the standard, drugs were intravitreally injected, and indexs were subsequently tested after 14 days. Blood glucose was measured once before sampling.
3.5 Evans blue staining method (7 groups, 6 rats per group): Evans blue was intravenously injected. 2 hours later, normal saline was perfused into the left ventricle. The retina was taken to compare between the stained area and the unstained area to detect retinal vascular permeability.
3.6 Retinal leukocyte stasis detection method (7 groups, 6 rats per group): PBS was perfused into the left ventricle for 1 min to remove red blood cells and other substances. Concanavalin A (FITC (Sigma, C7642) was perfused (20 μg/ml in PBS, 5 mg/kg) to mark adherent leukocytes. 4% PFA was perfused for 4 min for fixation. 1% Albumin (Sigma, A6414) (in PBS) was perfused for 1 min, and then PBS was perfused for 2 min. The retina was taken for retinal wholemount. Thereafter, the stasis of leukocytes on the vascular endothelium was observed under a fluorescence microscope. […]

[3] = system: mouse model of ragweed pollen-induced allergic conjunctivitis; experiment: Mouse model of ragweed pollen-induced allergic conjunctivitis; format: in vivo, Balb/c mice
Method: SPF-grade Balb/c mice (half male and half female, 6-8 weeks old) were used as experimental animals. On Day 0 and Day 6, ragweed pollen footpad injection was injected subcutaneously into the footpads of mice for sensitization (65 μl per mouse). On Days 10-14, in the model group, eye drop of ragweed pollen was applied to both eyes of the mice (10 μl per mouse) once a day. The eye drops were applied for 5 consecutive days to trigger local allergic conjunctivitis (Wu B, et al., Frontiers in Immunology, 2021, 12:4754). […] On Day 14, within 30 minutes after the final challenge, the ocular clinical symptoms of the mice were observed under a microscope and scored according to the scoring criteria reported by Magone et al. (MerayoLloves J, et al., J Allergy Clin Immunol (1996) 97(5):1129-40; Magone M T, et al., Clin Immunol Immunopathol (1998) 87(1):75-84), the allergic response of the eyes were observed, including 4 indexes: conjunctival edema, conjunctival congestion, eyelid congestion and edema, and tearing. The scores were recorded as 0-3 points according to the severity (including none, mild, moderate and severe). The left eye of the mouse was taken with the eyelid (keeping the conjunctiva intact), fixed with polyformaldehyde, sectioned in paraffin, Hematoxylin-Eosin stained (HE stained), and toluidine blue stained (for detection of mast cells). Photographs were taken to analyze the inflammatory cell infiltration of the conjunctival tissue, and observe whether the mast cells in the conjunctiva aggregated and whether a phenomenon of degranulation occurred. The expression of allergic indicators IL-4 and IgE in the conjunctival tissue was detected by immunohistochemistry.
The mouse eye, including the eyelids (with intact conjunctiva), was sectioned after deparaffinization, and subjected to antigen retrieval and serum blocking.
Diluted IL-4 or IgE antibodies were added and incubated overnight. After incubation with secondary antibodies, DAB staining was performed, followed by counterstaining with hematoxylin. The slides were then mounted and observed under an […], with photographs taken. Semi-quantitative analysis was conducted using Image-J software. Based on the cumulative optical density and regional area values of each image, the average optical density was calculated to detect the positive expression of IL-4 or IgE.

[4] = system: rat model of acute lung injury; experiment: Rat model of LPS-induced acute lung injury; format: in vivo, Wistar rats; design: IL-6 (serum) / IL-6 (homogenate of lung tissue) / IL-6 (bronchoalveolar lavage fluid) / TNF-α (serum) / TNF-α (homogenate of lung tissue) / TNF-α (bronchoalveolar lavage fluid): unit not given here; settings: ELISA; test drug 30 mg/kg i.p. 2 h before and 1 h after LPS; 12 h after modeling
Method: 1. Experimental aminals: SPF-grade male Wistar rats, weighed 180-220 g, 6-8 weeks old.
3. Establishment of animal model: The rats were adaptively fed for one week. After the animals were anesthetized, 3 mg/kg LPS (B8) was injected intratracheally to prepare the rat model of acute lung injury.
4. […] At 2 hours before modeling (before tracheal injection of LPS), the test drug (30 mg/kg, the vehicle was 0.3% DMSO in saline) was intraperitoneally injected. At 1 hour after modeling, the test drug was administered once again (at the same dose). At 12 hours after modeling, the animals were sacrificed, and the samples were collected for the tests of various indexes. […]
5.2 ELISA method: 5 rats per group. The serum, alveolar lavage fluid, and tissue homogenate of one lung of each of the rats were subjected to ELISA assay to determine the TNF-α and IL-6 levels.

[5] = immunohistochemistry, dexamethasone 0.1% eye drop

Compound	concentration at 7 d [1] [nM]	pIC50 (human B1R)	retinal leukocyte stasis, Leukocyte count [2]	Clinical symptom score ([3]; 0.1% dexamethasone eye drop, twice a day for 14 days, Day 14 within 30 minutes after final challenge)	expression of IL-4 in ocular tissue (average optical density) [3, 5]	expression of IgE in ocular tissue (average optical density) [3, 5]	IL-6 (bronchoalveolar lavage fluid) [4]	IL-6 (homogenate of lung tissue) [4]	IL-6 (serum) [4]	TNF-α (bronchoalveolar lavage fluid) [4]	TNF-α (homogenate of lung tissue) [4]	TNF-α (serum) [4]
COc1ccc(-c2ccc(NC(=O)N3CCC(C(F)(F)F)CC3)cc2-c2nn[nH]n2)cc1OC [Compound 2, N-(3′,4′-dimethoxy-2-(2H-tetrazol-5-yl)-[1,1′-biphenyl]-4-yl)-4-(trifluoromethyl)piperidine-1-carboxamide]	1540	6.83										
C[C@@H]1C[C@H]2[C@@H]3CCC4=CC(=O)C=C[C@]4(C)[C@@]3(F)[C@@H](O)C[C@]2(C)[C@@]1(O)C(=O)CO [Dexamethasone, dexamethasone, reference compound]			4.17 ± 3.21	4.75 ± 0.51	0.23±0.09	0.53±0.11	115.59 ± 67.57	150.17 ± 100.46	255.58 ± 109.87	13.62 ± 7.33	19.17 ± 7.55	57.26 ± 19.27
